In US20240261417A1, “SOS1 DEGRADING AGENT AND PREPARATION METHOD THEREFOR AND APPLICATION THEREOF” (SHANGHAI LEADINGTAC PHARMACEUTICAL CO. LTD., priority 2021, published 2024):

Assays:
Assay type in all cases: cell-based
[1] = tested on: KRAS G13D mutant human colorectal adenocarcinoma epithelial cells DLD-1; experiment: 3D cell proliferation inhibition assay, DLD-1; conditions: Homo sapiens, DLD-1, 168 h, 7 days, CTG
Procedure: (§1) Inhibition of 3D cell proliferation by the compounds was investigated on KRAS G12C mutant human non-small cell lung cancer cells NCI-H358 (ATCC or Stem Cell Bank, Chinese Academy of Sciences), KRAS G12D mutant human metastatic pancreatic adenocarcinoma cells AsPC-1 (ATCC), KRAS G12V mutant human lung adenocarcinoma cells NCI-H441 (ATCC), and KRAS G13D mutant human colorectal adenocarcinoma epithelial cells DLD-1 (ATCC). The specific procedures were as follows:
(§2) 200 nL of compound solution diluted in a gradient was added to corresponding microwells of a 384-well low-adsorption microwell plate (Corning, 3657) using an Echo sonic pipetting system (Labcyte, Echo 550), so that the final concentration of the test compound in the reaction system was in a range of 20000 nM-0.008 nM. Then 40 μL of cells at a certain density were added to the corresponding microplate. In addition to test wells for the test compounds, both a DMSO control well and a medium control well were set, with the DMSO control well containing DMSO and cells and the medium well containing only medium. After sample loading, the plate cover was applied, and the 384-well low-adsorption microplate was incubated in an incubator at 37° C. with 5% carbon dioxide for 7 days. After 7 days, the microplate was taken out, and 40 μL of CTG reagent (Promega, G9683) was added to each well. The plate was incubated at room temperature for 30 min and read on a microplate reader EnVision using the chemiluminescence program. The inhibition rates of the compounds at each concentration were calculated by the formula for the percentage inhibition of cell proliferation: inhibition rate %=(mean value of DMSO control group−single concentration reading value of compound)/(mean value of DMSO control group−mean value of medium control group)×100, and then nonlinear curve fitting was performed by GraphPad Prism 8 in the logarithmic concentration-inhibition rate to obtain the IC50 values of the compounds.

[2] = tested on: KRAS G12C mutant human non-small cell lung cancer cells NCI-H358; experiment: 3D cell proliferation inhibition assay, NCI-H358; conditions: Homo sapiens, NCI-H358, 168 h, 7 days, CTG
Procedure: as §1, §2

[3] = tested on: KRAS G12D mutant human metastatic pancreatic adenocarcinoma cells AsPC-1; experiment: 3D cell proliferation inhibition assay, AsPC-1; conditions: Homo sapiens, ASPC1, 168 h, 7 days, CTG
Procedure: as §1, §2

IC50 [1] | IC50 [2] | IC50 [3] | SMILES
50 to 100 nM | ≤ 15 nM | 100 to 1000 nM | CNCc1ccccc1-c1csc([C@@H](C)Nc2nc(C)nc3cc(OC)c([C@H]4CC[C@H](C(=O)N5CCN(CC6CCC7(CC6)CCN(C(=O)c6ccc(OC)c(N8CCC(=O)NC8=O)c6)CC7)CC5)CC4)cc23)c1 [Example 73, 1-(2-methoxy-5-(9-((4-((1R,4R)-4-(7-methoxy-2-methyl-4-(((R)-1-(4-(2-((methylamino)methyl)phenyl)thien-2-yl)ethyl)amino)quinazolin-6-yl)cyclohexane-1-carbonyl)piperazin-1-yl)methyl)-3-azaspiro[5.5]undecane-3-carbonyl)phenyl)dihydropyrimidine-2,4(1H,3H)-dione]
15 to 30 nM | ≤ 15 nM | 100 to 1000 nM | COc1cc2nc(C)nc(N[C@H](C)c3cc(N)cc(C(F)(F)F)c3)c2cc1[C@H]1CC[C@H](C(=O)N2CCN(CC3CCC4(CC3)CCN(C(=O)c3ccc(Cl)c(N5CCC(=O)NC5=O)c3)CC4)CC2)CC1 [Example 2, 1-(5-(9-((4-((1R,4R)-4-(4-(((R)-1-(3-amino-5-(trifluoromethyl)phenyl)ethyl)amino)-7-methoxy-2-methylquinazolin-6-yl)cyclohexane-1-carbonyl)piperazin-1-yl)methyl)-3-azaspiro[5.5]undecane-3-carbonyl)-2-chlorophenyl)dihydropyrimidine-2,4(1H,3H)-dione]
100 to 1000 nM | ≤ 15 nM | 100 to 1000 nM | COc1cc2nc(C)nc(N[C@H](C)c3cc(N)cc(C(F)(F)F)c3)c2cc1[C@H]1CC[C@H](C(=O)N2CCC(CCOCC3CCN(C(=O)c4ccc(Cl)c(N5CCC(=O)NC5=O)c4)CC3)CC2)CC1 [Example 19, 1-(5-(4-((2-(1-((1R,4R)-4-(4-(((R)-1-(3-amino-5-(trifluoromethyl)phenyl)ethyl)amino)-7-methoxy-2-methylquinazolin-6-yl)cyclohexane-1-carbonyl)piperidin-4-yl)ethoxy)methyl)piperidine-1-carbonyl)-2-chlorophenyl)dihydropyrimidine-2,4(1H,3H)-dione]
30 to 50 nM | ≤ 15 nM | 15 to 30 nM | COc1cc2nc(C)nc(N[C@H](C)c3cc(N)cc(C(F)(F)F)c3)c2cc1[C@H]1CC[C@H](C(=O)N2CCN(CCC3CCC4(CC3)CCN(C(=O)c3ccc(Cl)c(N5CCC(=O)NC5=O)c3)CC4)CC2)CC1 [Example 1, 1-(5-(9-(2-(4-((1R,4R)-4-(4-(((R)-1-(3-amino-5-(trifluoromethyl)phenyl)ethyl)amino)-7-methoxy-2-methylquinazolin-6-yl)cyclohexane-1-carbonyl)piperazin-1-yl)ethyl)-3-azaspiro[5.5]undecane-3-carbonyl)-2-chlorophenyl)dihydropyrimidine-2,4(1H,3H)-dione]
50 to 100 nM | ≤ 15 nM | 100 to 1000 nM | COc1cc2nc(C)nc(N[C@H](C)c3cc(N)cc(C(F)(F)F)c3)c2cc1[C@H]1CC[C@H](C(=O)N2CCN(CCOCC3CCN(C(=O)c4ccc(Cl)c(N5CCC(=O)NC5=O)c4)CC3)CC2)CC1 [Example 33, 1-(5-(4-((2-(4-((1R,4R)-4-(4-(((R)-1-(3-amino-5-(trifluoromethyl)phenyl)ethyl)amino)-7-methoxy-2-methylquinazolin-6-yl)cyclohexane-1-carbonyl)piperazin-1-yl)ethoxy)methyl)piperidine-1-carbonyl)-2-chlorophenyl)dihydropyrimidine-2,4(1H,3H)-dione]
15 to 30 nM | ≤ 15 nM | 30 to 50 nM | COc1cc2nc(C)nc(N[C@H](C)c3cccc4c3CCS4(=O)=O)c2cc1[C@H]1CC[C@H](C(=O)N2CCN(CC3CCC4(CC3)CCN(C(=O)c3ccc(Cl)c(N5CCC(=O)NC5=O)c3)CC4)CC2)CC1 [Example 10, 1-(2-chloro-5-(9-((4-((1R,4R)-4-(4-(((R)-1-(1,1-dioxo-2,3-dihydrobenzo[b]thiophen-4-yl)ethyl)amino)-7-methoxy-2-methylquinazolin-6-yl)cyclohexane-1-carbonyl)piperazin-1-yl)methyl)-3-azaspiro[5.5]undecane-3-carbonyl)phenyl)dihydropyrimidine-2,4(1H,3H)-dione]
